Legend:
FAK = molecular target: T1, FAK (Homo sapiens, UniProt Q05397); assay: FAK autophosphorylation inhibition, time-resolved fluorescence test (HTRF); format: biochemical; conditions: autophosphorylation of His-tagged human FAK, 15 μM ATP, 1 hour at 37° C.
T1 construct: The whole cDNA of human FAK; made in house; host or cells: baculovirus expression (pFastBac HTc)
Protocol: The inhibitory activity of the compounds on FAK is determined by measuring the inhibition of autophosphorylation of the enzyme using a time-resolved fluorescence test (HTRF).
The whole cDNA of human FAK, the N-terminal end of which has been labelled with histidine, was cloned in a pFastBac HTc baculovirus expression vector. The protein was expressed and purified to about 70% homogeneity.
The kinase activity is determined by incubating the enzyme (6.6 μg/ml) with different concentrations of test compound in a 50 mM Hepes pH=7.2, 10 mM MgCl2, 100 μm Na3VO4, 15 μM ATP buffer for 1 hour at 37° C. The enzymatic reaction is stopped by adding Hepes pH=7.0 buffer containing 0.4 mM KF, 133 mM EDTA, 0.1% BSA and the labelling is performed, for 1 to 2 hours at room temperature, by adding to this buffer an anti-Histidine antibody labelled with XL665 and a tyrosine phosphospecific monoclonal antibody conjugated to europium cryptate (Eu—K). The characteristics of the two fluorophores are available in G. Mathis et al., Anticancer Research, 1997, 17, pages 3011-3014. The energy transfer from the excited europium cryptate to the acceptor XL665 is proportional to the degree of autophosphorylation of FAK. The long-lasting signal specific for XL-665 is measured in a Packard Discovery plate counter. All the tests are performed in duplicate and the average of the two tests is calculated. The inhibition of the autophosphorylation activity of FAK with compounds of the invention is expressed as a percentage of inhibition relative to a control whose activity is measured in the absence of test compound. To calculate the percentage inhibition, the ratio [signal at 665 nm/signal at 620 nm] is considered.

TIE2 = molecular target: T2, TIE2 (Homo sapiens, UniProt Q02763); assay: Tie2 phosphorylation of PLC test (GST-Tie2, FlashPlate); format: biochemical; conditions: GST-Tie2 intracellular domain 776-1124, GST-PLC substrate, 33P-ATP, one hour at 37° C.; read-out: IC 50 TIE2
T2 construct: amino acids of the intracellular domain 776-1124; made in house; host or cells: baculovirus expression (pFastBacGT)
Protocol: The coding sequence of human Tie2 corresponding to the amino acids of the intracellular domain 776-1124 was generated by PCR using the cDNA isolated from a human placenta as a model. This sequence was introduced into a pFastBacGT baculovirus expression vector in the form of a GST fusion protein.
The inhibitory effect of the molecules is determined in a test of phosphorylation of PLC with Tie2 in the presence of GST-Tie2 purified to about 80% homogeneity. The substrate is composed of the SH2-SH3 fragments of PLC expressed in the form of a GST fusion protein.
The kinase activity of Tie2 is measured in a MOPS 20 mM pH 7.2 buffer, containing 10 mM MgCl2, 10 mM MnCl2, 1 mM DTT, 10 mM of glycerophosphate. In a 96-well FlashPlate plate maintained on ice, a reaction mixture is deposited, composed of 70 μL of kinase buffer containing 100 ng of enzyme GST-Tie2 per well. Next, 10 μL of the test molecule diluted in DMSO to a maximum concentration of 10% are added. For a given concentration, each measurement is performed four times. The reaction is initiated by adding 20 μl of solution containing 2 μg of GST-PLC, 2 μm of cold ATP and 1 μCi of ^33P[ATP]. After incubation for one hour at 37° C., the reaction is stopped by adding 1 volume (100 μl) of 200 mM EDTA. After removal of the incubation buffer, the wells are washed three times with 300 μL of PBS. The radioactivity is measured on a MicroBeta 1450 Wallac.
The inhibition of the Tie2 activity is calculated and expressed as a percentage of inhibition relative to the control activity determined in the absence of compound.

T2 sequence (Q02763 776-1124): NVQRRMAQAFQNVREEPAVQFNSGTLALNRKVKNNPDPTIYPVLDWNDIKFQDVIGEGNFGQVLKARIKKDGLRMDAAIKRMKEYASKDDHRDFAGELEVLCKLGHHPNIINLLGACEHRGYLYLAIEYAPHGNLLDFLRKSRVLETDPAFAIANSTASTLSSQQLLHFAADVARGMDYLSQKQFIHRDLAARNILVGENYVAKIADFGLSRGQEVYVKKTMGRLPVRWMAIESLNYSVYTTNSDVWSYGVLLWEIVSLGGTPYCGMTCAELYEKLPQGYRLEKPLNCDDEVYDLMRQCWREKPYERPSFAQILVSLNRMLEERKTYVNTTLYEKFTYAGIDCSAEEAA
T1 sequence (Q05397 whole entry): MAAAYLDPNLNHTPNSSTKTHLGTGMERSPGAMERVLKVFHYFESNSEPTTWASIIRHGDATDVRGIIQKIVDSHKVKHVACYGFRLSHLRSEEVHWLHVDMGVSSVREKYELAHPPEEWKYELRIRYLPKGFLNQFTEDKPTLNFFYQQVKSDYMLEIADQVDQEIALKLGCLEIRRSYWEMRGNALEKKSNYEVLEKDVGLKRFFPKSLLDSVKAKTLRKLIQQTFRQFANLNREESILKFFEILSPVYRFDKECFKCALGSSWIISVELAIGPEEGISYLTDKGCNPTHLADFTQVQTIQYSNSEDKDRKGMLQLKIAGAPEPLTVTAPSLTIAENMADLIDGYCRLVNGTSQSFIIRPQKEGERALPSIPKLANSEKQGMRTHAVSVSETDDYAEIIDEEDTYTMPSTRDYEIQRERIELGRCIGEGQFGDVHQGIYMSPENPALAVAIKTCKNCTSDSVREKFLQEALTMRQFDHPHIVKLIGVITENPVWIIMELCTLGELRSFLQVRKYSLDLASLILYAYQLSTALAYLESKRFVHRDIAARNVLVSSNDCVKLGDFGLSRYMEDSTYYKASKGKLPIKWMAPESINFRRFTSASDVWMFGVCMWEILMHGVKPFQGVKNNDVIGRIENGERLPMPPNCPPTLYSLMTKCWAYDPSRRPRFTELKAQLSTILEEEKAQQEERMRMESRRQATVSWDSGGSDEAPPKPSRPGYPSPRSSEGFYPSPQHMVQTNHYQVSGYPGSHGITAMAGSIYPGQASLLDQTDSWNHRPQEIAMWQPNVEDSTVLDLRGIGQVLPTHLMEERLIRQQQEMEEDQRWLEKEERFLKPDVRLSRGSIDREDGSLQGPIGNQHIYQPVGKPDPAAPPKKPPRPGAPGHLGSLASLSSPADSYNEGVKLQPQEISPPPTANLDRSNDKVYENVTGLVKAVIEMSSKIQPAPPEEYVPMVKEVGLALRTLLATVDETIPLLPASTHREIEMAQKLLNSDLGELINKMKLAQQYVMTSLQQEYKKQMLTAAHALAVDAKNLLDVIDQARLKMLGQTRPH

| IC50 (FAK) [nM] | IC50 (TIE2) [nM] | Structure (SMILES) |
| --- | --- | --- |
| 164 | 4 | NC(=O)c1[nH]c2cnccc2c1-c1ccc(NC(=O)Nc2cc(C(F)(F)F)ccc2F)cc1 [Example 1, 3-{4-[3-(2-Fluoro-5-trifluoromethylphenyl)ureido]phenyl}-1H-pyrrolo[2,3-c]pyridine-2-carboxamide] |
| 299 | 21 | COc1ccc(C)cc1NC(=O)Nc1ccc(-c2c(C(N)=O)[nH]c3cnccc23)cc1 [Example 2, 3-{4-[3-(2-Methoxy-5-methylphenyl)ureido]phenyl}-1H-pyrrolo[2,3-c]pyridine-2-carboxamide] |
| 249 | 47 | Cc1ccc(F)c(NC(=O)Nc2ccc(-c3c(C(N)=O)[nH]c4cnccc34)cc2)c1.O=C(O)C(F)(F)F [Example 5, 3-{4-[3-(2-Fluoro-5-methylphenyl)ureido]phenyl}-1H-pyrrolo[2,3-c]pyridine-2-carboxamide trifluoroacetate] |
| 184 | 9 | NC(=O)c1[nH]c2ncccc2c1-c1ccc(NC(=O)Nc2cc(C(F)(F)F)ccc2F)cc1 [Example 7, 3-{4-[3-(2-Fluoro-5-trifluoromethylphenyl)ureido]phenyl}-1H-pyrrolo[2,3-b]pyridine-2-carboxamide] |
